# Measurements as given in US10517870B2, “Aryl substituted bicycle heteroaryl compounds” (Bristol-Myers Squibb Company, priority 2015, dated 2019).
# Tests used:
# Type in all cases: cell-based
# HeLa (HPV18+) cells = test: Cell proliferation/viability assay, HeLa cells; conditions: Homo sapiens, 96 h, 4 days
# Outline: (§1)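 Cells plated in antibiotic-free growth medium, compound added 2 h later (0.5% DMSO final) and incubated 4 days at 37 °C. Viability by CellTiter Blue (ex 530/em 590 nm) or CellTiter Glo luminescence; IC50 from four-parameter logistic fit of % inhibition.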
# SiHa (HPV16+) cells = test: Cell proliferation/viability assay, SiHa cells; conditions: Homo sapiens, 96 h, 4 days
# Outline: as §1
# PAR4 = target: T1, PAR4 (Homo sapiens, UniProt Q96RI0); test: PAR4 FLIPR assay (calcium mobilization, antagonist activity) in PAR4-expressing HEK293 cells
# T1 construct: expressed in transfected cells; host or cells: HEK293 PAR4 Clone 1.2A
# T1 sequence (Q96RI0 18-385): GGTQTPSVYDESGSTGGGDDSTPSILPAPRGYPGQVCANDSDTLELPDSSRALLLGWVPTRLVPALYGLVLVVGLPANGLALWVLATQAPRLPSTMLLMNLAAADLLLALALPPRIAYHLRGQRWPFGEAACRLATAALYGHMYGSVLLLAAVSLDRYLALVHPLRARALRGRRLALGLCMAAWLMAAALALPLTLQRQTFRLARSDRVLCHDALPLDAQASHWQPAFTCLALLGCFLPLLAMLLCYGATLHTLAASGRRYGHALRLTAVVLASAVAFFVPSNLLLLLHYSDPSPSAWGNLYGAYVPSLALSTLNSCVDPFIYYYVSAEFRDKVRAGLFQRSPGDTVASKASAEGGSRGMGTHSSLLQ
# Text: The FLIPR assay is an exemplary in vitro assay for measuring the activity of the PAR4 antagonists of the present invention. In this assay, intracellular calcium mobilization is induced in PAR4 expressing cells by a PAR4 agonist and calcium mobilization is monitored.
# HEK293 cells stably expressing PAR4 were generated by a standard method of transfection of human PAR4 (F2R23) cDNA expression vector and selected based on PAR4 protein expression or mRNA expression. […] These cells also express endogenous PAR1 and can elicit calcium signal upon stimulation with PAR1 agonist peptide. Therefore, the same cells were also used to determine selectivity against PAR1 and agonist activity for both receptors. Cells from HEK293 PAR4 Clone 1.2A (BMS Arctic ID 383940) were propagated and used for calcium mobilization studies.
# FLIPR-based calcium mobilization assay in HEK293 cells was used to measure PAR4 antagonism, agonism, and selectivity against PAR1. The activity of the PAR4 antagonists of the present invention were tested in PAR4 expressing cells by monitoring H-Ala-Phe(4-F)-[…]NH2-induced intracellular calcium mobilization. Counter screens for agonist activity and PAR1 antagonist activity were also performed. Briefly, PAR1/PAR4-expressing HEK293 cells were grown in DMEM (Life Technology, Grand Island, N.Y.) containing 10% heat-inactivated FBS, 1% Penicillin-Streptomycin, 10 μg/mL blasticidin, and 100 μg/mL Zeocin at 37° C. with 5% CO2. Cells were plated overnight prior to the experiment in a black 384-well Purecoat Amine clear bottom plate (Becton Dickinson Biosciences, San Jose, Calif.) at 10,000 cells/well in 30 μL growth medium and incubated in a humidified chamber at 37° C. with 5% CO2 overnight. Prior to compound addition, the cell medium was replaced with 40 μL of IX calcium and magnesium-containing Hank's Balanced Saline Solution (HBSS) (with 20 mM HEPES) and 1:1000 diluted fluorescent calcium indicator (Codex Biosolutions, Gaithersburg, Md.). After a 30 minute incubation period at 37° C., and a further 30 minute incubation and equilibration period at room temperature, 20 μL test compound (diluted in 1×HBSS buffer) was added at various concentrations at 0.17% dimethyl sulfoxide (DMSO) final concentration. Changes in fluorescence intensity were measured using a Functional Drug Screening System (FDSS, Hamamatsu, Japan) to determine agonist activities. The cells were then incubated for 30 minutes at room temperature followed by addition of 20 μL of agonist peptide for antagonist activity measurement. […] Compound potency was derived from 11-point concentration-response curves.
smiles,measurement,setting,value
"COc1ccc(-c2cc(C)cc3nc(OC(F)F)cnc23)cc1 [Example 6, 2-(difluoromethoxy)-5-(4-methoxyphenyl)-7-methylquinoxaline]",IC50,HeLa (HPV18+) cells,10.6 µM
same,IC50,SiHa (HPV16+) cells,10.1 µM
same,IC50,PAR4,2.4 µM
